From patent US7196115B2, “Pharmaceutical composition containing brevifoliol for use in chemotherapeutic treatment of human beings, method therefor” (Council of Scientific and Industrial Research, priority 2002, dated 2007)
Converted amounts (≈) assume the structure as drawn. Like-named read-outs stand apart in the source and are kept apart here.

Experiments:
[1] = tested on: Caco-2 colon cancer cells; assay: In-vitro anticancer MTT assay; format: cell-based, human; conditions: for IC90: Homo sapiens
Description: (§1) The bioactivity testing was done at two stages.

[2] = tested on: MCF-7 breast cancer cells; assay: In-vitro anticancer MTT assay; format: cell-based, human; conditions: for IC90: Homo sapiens, MCF7, read-out: Cytotoxic properties (IC 90) MCF-7
Description: as §1

[3] = tested on: PA-1 ovary cancer cells; assay: In-vitro anticancer MTT assay; format: cell-based, human; conditions: for Cytotoxic properties (IC 90) PA-1 / IC90: MTT assay, 6 h exposure, then 48 h in fresh media, 90% inhibition of cell growth; for IC90: Homo sapiens, read-out: Cytotoxic properties (IC 90) PA-1
Description: as §1

[4] = tested on: KB-403 mouth cancer cells
Method: (§2) As a part of the studies on the isolation of anticancer compounds a number of taxanes were isolated from the needles of the plant Taxus wallichiana and tested for their anti-cancer properties against six human cancer cell lines in-vitro. The bioactivity testing was done at two stages. In the initial step, MTT assay was performed from which the inhibitory concentration (IC90) the concentration (μg/mL) of the taxanes required for 90% inhibition of cell growth was deduced. […] The MTT assay cannot discriminate between growth inhibition and cell death; it is an overall measurement of cell proliferation (Woerdenbag et al., 1993; J.Nat.Prod. 56 (6): 849–856). Therefore the IC90 data obtained by the MTT assay may overestimate the cell killing activity of a compound. […] Persons skilled in the art of anti-cancer drug discovery can perform both these assays.
(§3) The following six human cancer lines were procured from the Cell Repository of the National Center for Cell Sciences (NCSS) at Pune. Their corresponding ATCC No. and the organ from which they were isolated are also mentioned in Table 1 below:
(§4) Cytotoxicity testing in vitro was done by the method of Woerdenbag et al.,1993; J.Nat.Prod. 56 (6): 849–856). 2×10^3 cells/well were incubated in the 5% CO2 incubator for 24 h to enable them to adhere properly to the 96 well polysterene microplate (Grenier, Germany). Test compounds dissolved in 100% DMSO (Merck,Germany) in at least five doses were added and left for 6 h after which the compound plus media was replaced with fresh media and the cells were incubated for another 48 h in the CO2 incubator at 37° C. […] Then, 10 μl MTT [3-(4,5-dimethylthiazol-2-yl)-2,5-diphenyltetrazolium bromide; Sigma M 2128] was added, and plates were incubated at 37° C. for 4 h. 100 μl dimethyl sulfoxide (DMSO, Merck, Germany) were added to all wells and mixed thoroughly to dissolve the dark blue crystals. After a few minutes at room temperature to ensure that all crystals were dissolved, the plates were read on a SpectraMax 190 Microplate Elisa reader (Molecular Devices Inc., USA), at 570 nm. Plates were normally read within 1 h of adding the DMSO. The experiment was done in triplicate and the inhibitory concentration (IC) values were calculated as follows: % inhibition=[1-OD (570 nm) of sample well/OD (570 nm) of control well]×100. IC90 is the concentration μg/mL required for 90% inhibition of cell growth as compared to that of untreated control.

[5] = tested on: Caco-2 colon cancer cells; assay: Soft agar assay for colony formation (clonogenic assay); format: cell-based, human; conditions: compound in top soft agar; for Cytotoxic properties (IC 90) Caco-2: colony formation on soft agar; for IC90: Homo sapiens, Caco-2, colony formation on soft agar, read-out: Cytotoxic properties (IC 90) Caco-2
Description: as §1

[6] = tested on: MCF-7 breast cancer cells; assay: as above; format: cell-based, human; conditions: compound in top soft agar; for Cytotoxic properties (IC 90) MCF-7: colony formation on soft agar; for IC90: Homo sapiens, MCF7, colony formation on soft agar, read-out: Cytotoxic properties (IC 90) MCF-7
Description: as §1

[7] = tested on: PA-1 ovary cancer cells; assay: as above; format: cell-based, human; conditions: colony formation on soft agar, compound in top soft agar; for IC90: Homo sapiens, read-out: Cytotoxic properties (IC 90) PA-1
Description: as §1

[8] = tested on: KB-403 mouth cancer cells; remark: listed apart in the source
Method: as §2
(§5) The clonogenic assay for tumor cells which determines the actual cell death was performed to determine the cytotoxic potential of test compounds. The principle of clonogenic assay is to investigate the ability of an individual cell to form a colony on a soft agar plate containing various concentrations of test compounds.
(§6) Cells not able to form colonies are considered clonogenically dead (Beekman et al 1997; J.Nat.Prod. 60(4): 325–330). The concentration of test compound resulting in […] was denoted as IC90 and was used as a parameter for cytotoxicity. The assay was performed as described previously except that the test compounds were added into the top soft agar and the cells were plated out to form colonies. Anthracycline derivative doxorubicin and microtubule depolymerization inhibitor paclitaxel (Sigma Chem. Co., St. Loius, USA) both established anticancer agents were included as standard reference drugs.

[9] = tested on: COLO-320DM colon cancer cells; assay: In-vitro anticancer MTT assay; format: cell-based, human; conditions: 6 h exposure, then 48 h in fresh media, 90% inhibition of cell growth; for IC90: Homo sapiens, COLO 320DM, read-out: Cytotoxic properties (IC 90) COLO-320 DM
Description: as §1

[10] = tested on: WRL-68 liver cancer cells; assay: In-vitro anticancer MTT assay; conditions: for IC90: Homo sapiens, WRL68, read-out: Cytotoxic properties (IC 90) WRL-68
Method: as §2, §3, §4

[11] = tested on: WRL-68 liver cancer cells; assay: Soft agar assay for colony formation (clonogenic assay); conditions: for IC90: Homo sapiens, WRL68, read-out: Cytotoxic properties (IC 90) WRL-68
Method: as §2, §5, §6

[12] = tested on: COLO-320DM colon cancer cells; assay: as above; format: cell-based, human; conditions: colony formation on soft agar, compound in top soft agar; for IC90: Homo sapiens, COLO 320DM, read-out: Cytotoxic properties (IC 90) COLO-320 DM
Description: as §1

[13] = MTT assay, 6 h exposure, then 48 h in fresh media, 90% inhibition of cell growth
[14] = clonogenic assay, colony formation on soft agar, compound in top soft agar
[15] = Caco-2, MTT assay, 6 h exposure, then 48 h in fresh media, 90% inhibition of cell growth, read-out: Cytotoxic properties (IC 90) Caco-2

Molecule | Cytotoxic properties (IC 90) Caco-2 [1, 13] [µg/mL] | Cytotoxic properties (IC 90) KB-403 [4, 13] [µg/mL] | Cytotoxic properties (IC 90) Caco-2 [5] [µg/mL] | Cytotoxic properties (IC 90) KB-403 [8, 14] [µg/mL] | IC90 [9] [µg/mL] | IC90 [2, 13] [µg/mL] | IC90 [3] [µg/mL] | IC90 [10] [µg/mL] | IC90 [12] [µg/mL] | IC90 [5] [µg/mL] | IC90 [6] [µg/mL] | IC90 [7] [µg/mL] | IC90 [11] [µg/mL] | Cytotoxic properties (IC 90) KB-403 [4] [µg/mL] | also measured
2′-Deacetoxy austrospicatin | 1.0 | 4.5 | 3.16 | 0.44 | – | – | – | – | – | – | – | – | – | – | Cytotoxic properties (IC 90) MCF-7 [2, 13]: 3.5 µg/mL; Cytotoxic properties (IC 90) PA-1 [3]: 4.0 µg/mL; Cytotoxic properties (IC 90) MCF-7 [6]: 5.63 µg/mL; Cytotoxic properties (IC 90) PA-1 [7]: 6.3 µg/mL
C=C1[C@H]2C[C@@H]3C[C@H](OC(C)=O)C(C)=C([C@@H](OC(C)=O)[C@H](OC(C)=O)[C@]2(C)[C@@H](OC(C)=O)C[C@@H]1O)C3(C)C [2-deacetoxy decinnamoyl taxinine J] | 6.4 | 0.01 | 31.82 | 0.11 | – | – | – | – | – | – | – | – | – | – | Cytotoxic properties (IC 90) COLO-320 DM [9]: >10.0 µg/mL; Cytotoxic properties (IC 90) PA-1 [3]: 10.0 µg/mL; Cytotoxic properties (IC 90) WRL-68 [10, 13]: 0.5 µg/mL; Cytotoxic properties (IC 90) PA-1 [7]: 15.84 µg/mL; Cytotoxic properties (IC 90) WRL-68 [11, 14]: 12.58 µg/mL
C=C1[C@@H](OC(=O)/C=C/c2ccccc2)C[C@H](OC(C)=O)[C@]2(C)[C@@H]1C[C@@H]1C[C@H](OC(C)=O)C(C)=C([C@@H](OC(C)=O)[C@@H]2OC(C)=O)C1(C)C [2-deacetoxy taxinine J] | 0.009 | 3.5 | 0.25 | 28.18 | – | – | – | – | – | – | – | – | – | – | Cytotoxic properties (IC 90) COLO-320 DM [9]: 1.0 µg/mL; Cytotoxic properties (IC 90) MCF-7 [2, 13]: 6.5 µg/mL; Cytotoxic properties (IC 90) COLO-320 DM [12]: 10.0 µg/mL; Cytotoxic properties (IC 90) MCF-7 [6]: 7.94 µg/mL
CC(=O)O[C@H]1C[C@H]2OC[C@@]2(OC(C)=O)[C@H]2[C@H](OC(C)=O)[C@]3(C(C)(C)O)C[C@H](O)C(C)=C3[C@@H](O)[C@H](OC(C)=O)[C@]12C [10,13,deacetyl abeobaccatin IV] | – | >10.0 | – | – | – | – | – | – | – | – | – | – | – | – | Cytotoxic properties (IC 90) MCF-7 [2]: >10.0 µg/mL
C=C1C2C[C@]3(C(C)(C)O)CC(O)C(C)=C3[C@@H](OC(=O)c3ccccc3)[C@H](OC(C)=O)[C@]2(C)[C@@H](OC(C)=O)C[C@@H]1O (some centres unmarked) [Brevifoliol, brevifoliol] | – | 0.035 | – | 0.398 | 0.1 (≈ 0.18 µM) | 0.004 (≈ 0.00719 µM) | 6 (≈ 10.8 µM) | > 10 | 1 (≈ 1.8 µM) | 0.31 (≈ 0.557 µM) | 1.99 (≈ 3.57 µM) | 7.94 (≈ 14.3 µM) | 15.8 (≈ 28.5 µM) | – | IC90 ([1]; Caco-2, read-out: Cytotoxic properties (IC 90) Caco-2): 0.85 µg/mL (≈ 1.53 µM); activity against Caco-2 cancer cells, in words ([1]; summary of the bioassay data): highly inhibitory; activity against MCF-7 cancer cells, in words ([2]; summary of the bioassay data): highly inhibitory; activity against PA-1 cancer cells, in words ([3]; summary of the bioassay data): highly inhibitory; activity against KB-403 cancer cells, in words ([4]; summary of the bioassay data): highly inhibitory; activity against WRL-68 liver cancer cells, in words ([10]; summary of Table 2): active against all cancer cell lines except liver cancer (WRL-68)
COc1cccc2c1C(=O)c1c(O)c3c(c(O)c1C2=O)C[C@@](O)(C(=O)CO)C[C@@H]3O[C@H]1C[C@H](N)[C@H](O)[C@H](C)O1 [Doxorubicin (Std), doxorubicin, reference compound] | – | – | – | – | 0.08 (≈ 0.147 µM) | 0.01 (≈ 0.0184 µM) | 0.5 (≈ 0.92 µM) | 1 (≈ 1.84 µM) | 0.1 (≈ 0.184 µM) | 0.079 (≈ 0.145 µM) | 0.8 (≈ 1.47 µM) | 10 (≈ 18.4 µM) | 3.98 (≈ 7.32 µM) | 0.06 | IC90 [1, 15]: 0.052 µg/mL (≈ 0.0957 µM)
CC(=O)O[C@H]1C(=O)[C@@]2(C)[C@H]([C@H](OC(=O)c3ccccc3)[C@]3(O)C[C@H](OC(=O)[C@H](O)[C@@H](NC(=O)c4ccccc4)c4ccccc4)C(C)=C1C3(C)C)[C@]1(OC(C)=O)CO[C@@H]1C[C@@H]2O [Taxol (Std), taxol, reference compound] | – | – | – | – | 0.01 (≈ 0.0117 µM) | 0.85 (≈ 0.995 µM) | 0.9 (≈ 1.05 µM) | 2.5 (≈ 2.93 µM) | 0.8 (≈ 0.937 µM) | 1.99 (≈ 2.33 µM) | 1.99 (≈ 2.33 µM) | 1.47 (≈ 1.72 µM) | 6.3 (≈ 7.38 µM) | 0.047 | IC90 [1, 15]: 0.065 µg/mL (≈ 0.0761 µM); Cytotoxic properties (IC 90) KB-403 [8]: 7.94 µg/mL
Acetoxy brevifoliol | – | – | – | – | – | – | – | – | – | – | – | – | – | 10.0 | Cytotoxic properties (IC 90) WRL-68 [10]: 5.0 µg/mL; Cytotoxic properties (IC 90) KB-403 [8]: 1.0 µg/mL; Cytotoxic properties (IC 90) WRL-68 [11]: 7.0 µg/mL
